Here are results for 1 compound from ChEMBL document CHEMBL5154722, “Identification of new potent anticancer derivatives through simplifying the core structure and modification on their 14- hydroxyl group from oridonin” (Eur J Med Chem, 2022).

Calls of active or inactive are those of the source. The calls are words filed in the database; no cut-off is given here.

For one data set, the system named is MGC-803. Nature of the data set: Antiproliferative activity against human MGC-803 cells assessed as reduction in cell viability incubated for 72 hrs by MTT assay. As to conditions: MGC-803, 72 h. In kind it is functional, cell-based. (In general: Tetrazolium dyes change colour on reduction, which living cells bring about.)
Data set [1] can be described thus: Antiproliferative activity against human U-87 MG cells assessed as reduction in cell viability incubated for 72 hrs by MTT assay. The data set is classed as functional, cell-based, U-87MG ATCC.
Data set [2] relates to K562. Nature of the data set: Induction of apoptosis in human K562 cells assessed as necrotic cells at 25 nM measured after 48 hrs by Annexin V-FITC/PI staining based flow cytometry method (reference value: 0.44%). In kind it is functional. (In flow cytometry, cells or beads pass a laser one at a time.)
Data set [3] concerns K562. As to the kind of experiment: Induction of apoptosis in human K562 cells assessed as reduction in phosphorylated Akt level measured after 48 hrs by Western blot analysis. The data set is classed as functional, cell-based. Conditions: dose 25-100 nM, DDE = dose-dependent effect. Background: A western blot detects proteins with antibodies after separation by electrophoresis.

In data set [4] the test system is K562. Nature of the data set: Induction of cell cycle arrest in human K562 cells assessed as accumulation of cells at G1 phase at 25 nM measured after 48 hrs by propidium iodide staining-based flow cytometric analysis (reference value: 47.40%). The data set is classed as functional.
For data set [5], the system named is K562. Nature of the data set: Induction of cell cycle arrest in human K562 cells assessed as downregulation of cdc2 measured after 48 hrs by Western blot analysis. In kind it is functional, cell-based. Conditions: dose 25-100 nM, DDE = dose-dependent effect.
In data set [6] the test system is K562. As to the kind of experiment: Induction of apoptosis in human K562 cells assessed as increase in Bax level at 25 to 100 nM measured after 48 hrs by Western blot analysis. The data set is classed as functional, cell-based. Conditions: dose 25-100 nM.
The test system of another data set is HeLa. Nature of the data set: Antiproliferative activity against human HeLa cells assessed as reduction in cell viability incubated for 72 hrs by MTT assay. In kind it is functional, cell-based.
In data set [7] the test system is K562. As to the kind of experiment: Induction of apoptosis in human K562 cells assessed as early apoptotic cells at 25 nM measured after 48 hrs by Annexin V-FITC/PI staining based flow cytometry method (reference value: 1.62%). The data set is classed as functional.
Data set [8] is described as follows: Toxicity in ICR mouse allografted with mouse H22 cells assessed as effect on liver morphology at 10 to 20 mg/kg, iv administered once a day for 21 days after 7 days of tumor implantation by H and E staining method. Conditions: in vivo, 504 h, dose 10-20 mg/kg, time 21 day. The data set is classed as organism-based.
For data set [9], the system named is K562. Nature of the data set: Antiproliferative activity against human K562 cells assessed as reduction in cell viability incubated for 72 hrs by MTT assay. The data set is classed as functional, cell-based. Conditions: K562, 72 h.
The test system of the next data set is MDA-MB-231. Nature of the data set: Antiproliferative activity against human MDA-MB-231 cells assessed as reduction in cell viability incubated for 72 hrs by MTT assay. The data set is classed as functional, cell-based. Conditions: MDA-MB-231, 72 h.
Data set [10] deals with K562. Nature of the data set: Induction of cell cycle arrest in human K562 cells assessed as accumulation of cells at G1 phase at 100 nM measured after 48 hrs by propidium iodide staining-based flow cytometric analysis (reference value: 47.40%). The data set is classed as functional.
Data set [11] can be described thus: Cytotoxicity against human L02 cells assessed as reduction in cell viability incubated for 72 hrs by MTT assay. In kind it is toxicity, cell-based.
For a further data set, the system named is MCF7. As to the kind of experiment: Antiproliferative activity against human MCF7 cells assessed as reduction in cell viability incubated for 72 hrs by MTT assay. In kind it is functional, cell-based. As to conditions: MCF7, 72 h.
The subject of data set [12] is K562. Nature of the data set: Induction of cell cycle arrest in human K562 cells assessed as accumulation of cells at G2 phase at 50 nM measured after 48 hrs by propidium iodide staining-based flow cytometric analysis (reference value: 15.30%). In kind it is functional.
Data set [13] in a line: Toxicity in ICR mouse allografted with mouse H22 cells assessed as effect on spleen morphology at 10 to 20 mg/kg, iv administered once a day for 21 days after 7 days of tumor implantation by H and E staining method. The data set is classed as organism-based. Conditions: in vivo, 504 h, dose 10-20 mg/kg, time 21 day.
Data set [14] concerns K562. As to the kind of experiment: Induction of cell cycle arrest in human K562 cells assessed as accumulation of cells at S phase at 100 nM measured after 48 hrs by propidium iodide staining-based flow cytometric analysis (reference value: 37.29%). The data set is classed as functional.
The subject of data set [15] is K562. Nature of the data set: Induction of cell cycle arrest in human K562 cells assessed as accumulation of cells at S phase at 25 nM measured after 48 hrs by propidium iodide staining-based flow cytometric analysis (reference value: 37.29%). In kind it is functional.
The test system of another data set is H22. As to the kind of experiment: Antitumor activity against mouse H22 cells allografted in ICR mouse assessed as reduction in tumor weight at 20 mg/kg, iv administered once a day for 21 days after 7 days of tumor implantation. In kind it is functional. On the set-up: scale not given: the % may be the effect or the level left. As to conditions: time 21 day.

The subject of data set [16] is K562. Nature of the data set: Induction of cell cycle arrest in human K562 cells assessed as accumulation of cells at G1 phase at 50 nM measured after 48 hrs by propidium iodide staining-based flow cytometric analysis (reference value: 47.40%). The data set is classed as functional.
Data set [17] in a line: Toxicity in ICR mouse allografted with mouse H22 cells assessed as change in body weight at 10 to 20 mg/kg, iv administered once a day for 21 days after 7 days of tumor implantation measured every two days. The data set is classed as organism-based. Conditions: in vivo, 504 h, dose 10-20 mg/kg, time 21 day.
Data set [18] relates to K562. Nature of the data set: Induction of apoptosis in human K562 cells assessed as reduction in phosphorylated PI3K level measured after 48 hrs by Western blot analysis. The data set is classed as functional, cell-based. Conditions: dose 25-100 nM, DDE = dose-dependent effect.

In general, IC50 refers to the concentration that gives 50% inhibition. Consider `C=C1C(=O)[C@]23[C@H](OC(=O)/C=C/c4ccncc4)[C@H]1CC[C@H]2[C@]12CCCC(C)(C)[C@H]1[C@H](O)[C@@]3(O)OC2`, for which the IC50 with MGC-803 was determined as 610 nM; in [1], 840 nM; with HeLa it was 1130 nM; in the data set on K562 [9], 90 nM; with MDA-MB-231, 420 nM; in the data set on MCF7, 700 nM. Moreover, the Activity is 0.05% in the data set with K562 [2]; “Dde” with K562 [3]; 39.5% in the data set on K562 [4]; “Dde” with K562 [5]; 10.6% in the data set on K562 [7]; “Non-Toxic” in [8]. In addition, the Activity is listed as 33.85% in the data set with K562 [10]; 26.72% with K562 [12]; “Non-Toxic” in [13]; 35.31% in the data set with K562 [14]; 38.36% with K562 [15]; 78.92% in the data set on H22. In addition, the Activity with K562 [16] was 36.76%; in data set [17] it was “Non-Toxic”; in the data set on K562 [18], “Dde”. In addition, the result in the data set on K562 [6] was Active. Further, the IC50 at 72 h in data set [11] turned out to be 3180 nM.
